Experiments:
CT-DNA [1] = assay: DNA binding by UV–visible absorption titration; design: species or system calf
Experimental: The DNA-binding experiment was performed by a UV–visible spectrophotometer by raising the DNA concentration from zero to 50 μM to the given concentration of all samples (50 μM) in Tris-HCl buffer with a pH of 7.4 at 25 °C [21, 22].
2.2.2. Evaluation of DNA-binding characteristics
By increasing the concentration of DNA (0 –50 μM), electronic absorption titrations were performed at the fixed concentration (50 μM) of all test compounds in aqueous media at room temperature. The Tris-HCl buffer (5mM Tris-HCl /50 mM NaCl, pH = 7.2) solution was guaranteed to be pure and contain sufficient amounts of DNA. Using the molar extinction coefficient (6600 M −1 cm−1) at 260 nm, it was also possible to measure the DNA concentration per nucleotide and polynucleotide, denoting that the DNA was sufficiently free of protein by the ratio of absorbance at 260 and 280 nm of roughly 1.8 –1.9 [21, 22]. When raising the concentration of DNA in compound solution, up to the point of completely binding, the decrease in absorbance intensity was carefully observed. […]
ɛa is represented as the apparent absorption coefficient value for the MLCT band at a specific concentration of deoxyribonucleic acid and evaluated from Abs/[complex]. ɛ f and ɛb are the absorption coefficients for the chemical substance alone and completely interacted with deoxyribonucleic acid, respectively. ∆Amax = (Amax–A0); ∆A=(Ax–A0), where A0, Ax and Amax are denoted as the optical density of chemical substances alone, the middle form, and the completely interacted form with deoxyribonucleic acid, respectively.

CT-DNA [2] = assay: DNA binding affinity by viscometric (hydrodynamic) titration; design: species or system calf; conditions: for Relative Specific Viscosity (η/η0)^1/3: DNA 100 µM
Experimental: The hydrodynamic titrations were carried out for all substances along with ethidium bromide (control) at 20, 40, 60, 80, 100 µM concentrations. In the Ostwald viscometer, these substances were also separately treated with the deoxyribonucleic acid solution (100 µM).
2.2.4. Viscometry-based titration for investigation of DNA binding
The Viscometry-based titration measurements were further supportive and delivered data about the binding modes between test compound and DNA base pairs. Nevertheless, it does not deliver definite confirmation for the exact mode of interactions. The experiment performed for all test compounds and ethidium bromide (control) at various concentrations 20, 40, 60, 80, 100 µM and each compound mixed with the CT-DNA solution (100 µM) in the Ostwald viscometer. With an accuracy of 0.01 seconds, a digital stopwatch was used to measure the average flow time. Due to the enhancement of the DNA's overall contour length during the separation of base pairs at intercalation sites, the classical intercalative mode […]
Generally, the compounds may result in less positive/negative or no viscosity change if they bind with DNA base pairs via […]
major or minor grooves [ 26]. […]
compounds via intercalation.

BSA = molecular target: T1, BSA (Bos taurus, UniProt P02769); assay: Förster's theory-based FRET computation, donor (BSA)–acceptor (compound); type: binding, bovine; design: kET (rate of exchange resonance energy transfer): unit not given here
T1 construct: purchased Sigma Aldrich
Excerpt: As per Förster’s theory, the critical distance of the donor-acceptor system can be determined with the supporting of the FRET approach to assess the binding affinity between BSA-substance systems. […]
excitation and emission directions, respectively. Also, the alteration in absorbance (OD) at the excitation and fluorescence wavelengths, respectively, is sometimes referred to as A ex and […]
F = 1+KSV [Q] = 1+ Kq τ0 (S13)
Where [Q] is represented as the sample concentration (quencher), the emission intensities F 0 and F are those in the […] of the quencher, respectively.
F ) = log Kass + nlog [Q] (S14)
KEB[EB] = Kapp[compound] (S15)
∆F = (F 0–F), Equation (16) was utilized to examine the Lineweaver –Burk binding constant (KLB) from the linear regression plot of 1/(F0–F) vs 1/[Q]. […]
γ =(F0–F)/F0, CF is denoted as the concentration of sample alone, the linear regression plot of (γ/CF) vs γ was employed to support equation (17), which was used to determine the values of KSA and n, respectively.
2.2.6. FRET calculation by Förster’s theory
Calculating FRET (Fluorescence Resonance Energy Transfer) is a crucial approach in determining the critical distance (r) between donor (BSA) and acceptor (test compound) molecules, in which the binding affinity between the BSA-complex systems could be evalued according to Förster’s theory. The overlap of the emission spectrum of the donor (BSA) and the absorption spectrum of the acceptor (compound) describes that the acceptor (compound) group may get excited as a result of the excited donor's (BSA) energy being lost to the ground […]
The relative orientation factor of the dipoles (K 2) is associated with the geometry of the BSA and complex of the dipoles, the value for random orientation (K 2 = 2/3) like in a fluid […]
F(λ) is represented as the corrected or the normalized emission intensity(OD) of the bovine serum albumin in the range of λ–(λ+∆λ), ε(λ) is denoted as the molar extinction coefficient of […]
The radiative, non-radiative decay and quenching rate constants are denoted as k r, knr and kq, respectively, and the concentration of complex (quenching species) is described as [Q].

[3] = DPPH radical scavenging assay; type: biochemical; conditions: 517 nm
[4] = Superoxide scavenging assay; type: biochemical; conditions: 590 nm
Aspergillus niger = assay: Agar disc diffusion antifungal test; conditions: H
Shigella flexneri = assay: Agar disc diffusion antibacterial test; conditions: E, (-) Shigella flexneri
[5] = compound 50 μM, DNA 0–50 μM, Tris-HCl buffer pH 7.4, 25 °C
[6] = intrinsic DNA binding constant, UV–Vis titration
[7] = 20 µL of 100 µM on 6 mm disc, Control (DMSO) = 6 mm

T1 sequence (P02769 25-607): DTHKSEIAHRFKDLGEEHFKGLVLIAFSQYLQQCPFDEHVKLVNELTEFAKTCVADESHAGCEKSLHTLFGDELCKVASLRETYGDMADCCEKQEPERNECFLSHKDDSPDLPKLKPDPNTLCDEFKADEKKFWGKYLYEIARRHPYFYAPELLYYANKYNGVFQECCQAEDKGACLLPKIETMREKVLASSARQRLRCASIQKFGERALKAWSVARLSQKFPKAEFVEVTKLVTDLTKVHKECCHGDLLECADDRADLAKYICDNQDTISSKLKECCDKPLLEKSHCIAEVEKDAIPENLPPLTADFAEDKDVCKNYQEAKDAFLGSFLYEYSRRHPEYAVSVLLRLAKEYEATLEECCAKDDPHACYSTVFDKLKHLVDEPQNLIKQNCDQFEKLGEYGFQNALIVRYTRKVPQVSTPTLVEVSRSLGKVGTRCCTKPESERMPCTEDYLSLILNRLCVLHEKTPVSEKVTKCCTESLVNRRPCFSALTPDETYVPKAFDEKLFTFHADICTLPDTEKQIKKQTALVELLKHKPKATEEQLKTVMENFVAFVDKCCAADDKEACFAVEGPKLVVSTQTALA

[Cu+2].[O-]c1ccccc1N=Cc1ccc(N2CCOCC2)cc1.[O-]c1ccccc1N=Cc1ccc(N2CCOCC2)cc1.c1cnc2c(c1)ccc1cccnc12 [(1b), [Cu^II(L)2(phen)]]
ΔGb° values, range over all methods (WS, BH, SK) (CT-DNA [1]; DNA binding, UV–Vis titration): −24.58 to −25.12 kJmol^−1 | % H (hypochromism) (CT-DNA [1]; [5]): 56.88% | Δλ nm (red shift on binding to CT-DNA) (CT-DNA [1]; [5]): 7 nm | Kb, BH–I (Benesi–Hildebrand method I) (CT-DNA [1]; [6]): 25359 M⁻¹ | Kb, BH–II (Benesi–Hildebrand method II) (CT-DNA [1]; [6]): 25251 M⁻¹ | Kb, SK–I (Sakthi–Krause method I) (CT-DNA [1]; [6]): 20314 M⁻¹ | Kb, SK–II (Sakthi–Krause method II) (CT-DNA [1]; [6]): 21747 M⁻¹ | Kb, WS–I (Wolfe-Shimmer method I) (CT-DNA [1]; [6]): 20610 M⁻¹ | Kb, WS–II (Wolfe-Shimmer method II) (CT-DNA [1]; [6]): 21357 M⁻¹ | ΔGb°, BH–I (CT-DNA [1]; −RT ln Kb, T = 298 K): −25.12 kJmol^−1 | ΔGb°, BH–II (CT-DNA [1]; −RT ln Kb, T = 298 K): −25.11 kJmol^−1 | ΔGb°, SK–I (CT-DNA [1]; −RT ln Kb, T = 298 K): −24.58 kJmol^−1 | ΔGb°, SK–II (CT-DNA [1]; −RT ln Kb, T = 298 K): −24.74 kJmol^−1 | ΔGb°, WS–I (CT-DNA [1]; −RT ln Kb, T = 298 K): −24.61 kJmol^−1 | ΔGb°, WS–II (CT-DNA [1]; −RT ln Kb, T = 298 K): −24.70 kJmol^−1 | Relative Specific Viscosity (η/η0)^1/3 (CT-DNA [2]; R = [Complex]/[DNA] = 0.2): 0.82 | Relative Specific Viscosity (η/η0)^1/3 (CT-DNA [2]; R = [Complex]/[DNA] = 0.4): 1.10 | Relative Specific Viscosity (η/η0)^1/3 (CT-DNA [2]; R = [Complex]/[DNA] = 0.6): 1.25 | Relative Specific Viscosity (η/η0)^1/3 (CT-DNA [2]; R = [Complex]/[DNA] = 0.8): 1.45 | Relative Specific Viscosity (η/η0)^1/3 (CT-DNA [2]; R = [Complex]/[DNA] = 1.0): 1.71 | Slope of (η/η0)^1/3 vs [Compound]/[DNA] (CT-DNA [2]; linear plot, R 0.2–1.0): 1.0805 | J (normalized spectral overlap integral) (BSA; BSA emission vs compound absorption): 0.6852 × 10^−14 LM^−1cm^3 | kET (rate of exchange resonance energy transfer) (BSA; BSA–compound): 3.8294 | r (donor-acceptor separation) (BSA; BSA–compound): 2.7780 nm | E (efficiency of energy transfer) (BSA; E=1−F/F0): 0.2769 | B (average brightness of the complex-BSA system) (BSA; free BSA = 6573.60 M^−1 cm^−1): 4999.08 M⁻¹ cm⁻¹ | R0 (critical distance, 50% energy transfer) (BSA; n = 1.36, Φ = 0.15, K^2 = 2/3): 2.3673 nm | % Inhibition, DPPH ([3]; 40 µM): 18.11% | % Inhibition, DPPH ([3]; 80 µM): 30.88% | % Inhibition, DPPH ([3]; 120 µM): 36.82% | % Inhibition, DPPH ([3]; 160 µM): 52.42% | % Inhibition, DPPH ([3]; 200 µM): 58.65% | % Inhibition, DPPH ([3]; 240 µM): 70.12% | IC50 [3]: 160 µM | % Inhibition, superoxide ([4]; 40 µM): 08.45% | % Inhibition, superoxide ([4]; 80 µM): 16.53% | % Inhibition, superoxide ([4]; 120 µM): 32.18% | % Inhibition, superoxide ([4]; 160 µM): 48.09% | % Inhibition, superoxide ([4]; 200 µM): 60.93% | % Inhibition, superoxide ([4]; 240 µM): 68.21% | IC50 [4]: 200 µM | diameter of clear zone inhibition (Aspergillus niger; [7]): 10 mm | Inhibition % (Aspergillus niger; (T–C)/T × 100): 40% | diameter of clear zone inhibition (Shigella flexneri; [7]): 17 mm | Inhibition % (Shigella flexneri; (T–C)/T × 100): 65%

— PMC9775322, “An Integrated Analysis of Mechanistic Insights into Biomolecular Interactions and Molecular Dynamics of Bio-Inspired Cu(II) and Zn(II) Complexes towards DNA/BSA/SARS-CoV-2 3CL^pro by Molecular Docking-Based Virtual Screening and FRET Detection” (Biomolecules, 2022)
